Assay results from patent US20260102407A1, “TREATMENT METHODS” (priority 2020, published 2026).

Key:
HMEC-1 [1] = test: Endothelial proliferation assay using the xCELLigence system; assay type: cell-based, human; settings: HMEC-1, 5% FBS, 79 h; for serum-inducible endothelial proliferation (xCELLigence cell index): 0.2-1 μM
Experimental: Endothelial proliferation assay using the xCELLigence system. HMEC-1 proliferation was evaluated using the xCELLigence System (Roche, Castle Hill). Briefly, HMEC-1 (5×10^3 cells/well) were seeded in a 96-well E-plate and inserted into the xCELLigence RTCA station (Roche). Cells were serum-deprived for 24 h in MCDB131 medium which contained 10 ng/ml EGF (Sigma-Aldrich) and 1 μg/ml hydrocortisone (Sigma-Aldrich) then treated with compound (0.2-1 μM) in medium containing 5% FBS, 10 ng/ml EGF (Sigma-Aldrich) and 1 μg/ml hydrocortisone (Sigma-Aldrich). Cell growth was monitored automatically every 15 min by xCELLigence system. Cell index (CI) represents a quantitative measure of each well cell growth. In this system, CI a unitless parameter that reports impedance of electron flow caused by adherent cells.

[2] = Solubility on dilution in medium containing serum; assay type: physicochemical; settings: dilution in medium containing serum
[3] = molecular target: T1, Recombinant human His-MEK2 (Homo sapiens, UniProt P36507); test: SPR (Biacore T200) on immobilised His-MEK2; assay type: binding; settings: 15° C.; 20 mM HEPES, 150 mM NaCl, 5% DMSO pH 7.4
T1 construct: purchased ThermoFisher Scientific PV3615
Experimental: (§1) SPR. SPR was performed on a Biacore T200. The active and reference flow cells of a Xantec NIHMC Ni sensor chip were conditioned with 0.5M NaEDTA followed by 5 mM NiCl2 in immobilisation buffer (20 mM HEPES, 150 mM NaCl, pH 7.4). Recombinant human His-MEK1 and His-MEK2 (500 nM, ThermoFisher Scientific, cat. PV3303 and PV3615, respectively) were injected for 15 min at 10 μl min^−1 over separate active flow cells. All immobilisation was carried out at 25° C. Following immobilisation, the temperature was lowered to 15° C., and the buffer changed to 20 mM HEPES, 150 mM NaCl, 5% DMSO pH 7.4. Samples of PD98059 (2.5-30 μM in running buffer) and BT2 (1.25-15 μM) were injected at a flow rate of 30 μl min^−1 over immobilised MEK1 and MEK2. Solvent correction was applied to the data using a DMSO standard curve. Data were analysed using the Biacore T200 Evaluation software. Prior to SPR, limits of compound solubility were determined using ^1H 1D NMR.

HMEC-1 [4] = test: Endothelial network formation assay on Matrigel; assay type: cell-based, human; settings: for endothelial network (tubule) formation on Matrigel: 3 μM, 1% FBS, 50 ng/ml FGF-2, 2, 4, 6 and 24 h
Experimental: Endothelial network formation assay. HMEC-1 (4×10^4 cells/well) in MCDB131 containing 1% FBS and compound (1 or 3 μM) or curcumin (1-40 μM) and 50 ng/ml FGF-2 were added to 96-well plates coated overnight at 4° C. with 100 μl of growth factor-reduced reconstituted basement membrane matrix (Matrigel, cat. 354230, Corning, NY). Network formation was observed over subsequent hours and photographed under 4× or 10× objective using an Olympus CKX41 microscope.

[5] = molecular target: T2, Recombinant human His-MEK1 (Homo sapiens, UniProt Q02750); test: SPR (Biacore T200) on immobilised His-MEK1; assay type: binding; settings: 15° C.; 20 mM HEPES, 150 mM NaCl, 5% DMSO pH 7.4
T2 construct: purchased ThermoFisher Scientific PV3303
Experimental: as §1

FosB/ΔFosB = test: Western blot, serum-inducible FosB/ΔFosB expression in HMEC-1; assay type: cell-based, human; settings: 30 μM compound, 10% FBS 1 h
Experimental: (§2) Western blot analysis with extracts of cells treated with serum. HMEC-1 (80-90% confluency) were arrested in serum-free MCDB131 medium without EGF or hydrocortisone for 20 h. Cells were treated with 30 μM compound in serum-free MCDB131 medium for 4 h, and the medium was changed to complete medium (with 10% FBS with EGF and hydrocortisone) with 30 μM compound for 1 h. Total protein was harvested as previously described in radioimmunoprecipitation (RIPA) lysis buffer with protease inhibitors (Li, Y., et al., Int J Cardiol 220, 185-191 (2016)). Proteins were resolved on 4-20% (w/v) sodium dodecyl sulfate (SDS)-polyacrylamide gradient gels (Bio-Rad Mini-PROTEAN TGX) and transferred to Immobilon-P PVDF membranes (Millipore, USA). Membranes were blocked with 5% skim milk and incubated with rabbit monoclonal FosB (cat. 2251, 1:1000, Cell Signaling, USA), rabbit monoclonal c-Fos antibodies (cat. 2250, 1:1000, Cell Signaling, USA) at 4° C. overnight or mouse monoclonal […] antibodies (cat. A5316, 1:30000, Sigma-Aldrich) at 22° C. for 15 min then incubated with a horseradish peroxidase conjugated secondary goat anti-rabbit (cat. P0448, 1:1000, DAKO Cytomation, Denmark) or goat anti-mouse (cat. P0447, 1:1000, DAKO Cytomation, Denmark) antibodies for 1 h. Chemiluminescence was detected using the Western Lightning Chemiluminescence system (PerkinElmer, USA) and ImageQuant™ LAS 4000 biomolecular imager (GE Healthcare Life Sciences, USA). Band intensity in images generated with the LAS 4000 on automatic exposure with sensitivity/resolution setting high was quantified using NIH ImageJ.

BAEC = test: Endothelial dual chamber migration assay toward VEGF-A165; assay type: cell-based, bovine; settings: 1 μM; Transwell; 10% FBS and 50 ng/ml VEGF-A165 in lower chamber; 24 h
Experimental: Endothelial dual chamber migration assay. BAEC (6×10^3 cells/well) suspended in DMEM supplemented with 10% FBS were seeded into the upper chamber of 24-well plates fitted with Millicell cell culture inserts (cat. PI8P01250, Millipore). After 48 h, the medium was changed to DMEM supplemented with 0.01% FBS and the cells were incubated for 48 h. Compounds prepared in DMEM containing 0.01% FBS were added to the upper chamber. VEGF-A165 (50 ng/ml, Sigma, cat. V7259) in medium containing 10% FBS was added to the lower chamber. After 24 h, medium from the upper chamber was removed and a cotton swab was used to remove non-migrated cells and excess liquid. The insert was placed in 70% ethanol for 10 min to allow cell fixation and membranes were dried for 10-15 min. Filters were excised and placed on slides. Mounting medium (Fluoroshield™ with DAPI, Sigma, cat. 6057) was added and specimens were visualized using an EVOS FL microscope.

HMEC-1 [6] = test: Endothelial repair following in vitro injury (scratch assay); assay type: cell-based, human; settings: 0.6 μM, 5% FBS, 48 h
Experimental: Endothelial repair following in vitro injury. HMEC-1 (90-100% confluency) in 6-well plates were washed with PBS, and treated with 0.6 μM compound in MCDB131 containing 5% FBS. A sterile pointed toothpick was used to scrape the cell monolayer and the wells photographed under 4× objective at 0 h and 48 h. Cell regrowth in the denuded zone was determined using Image-Pro Plus (Cybernetics, USA).

c-Fos = test: Western blot, serum-inducible c-Fos expression in HMEC-1; assay type: cell-based, human; settings: 30 μM compound, 10% FBS 1 h
Experimental: as §2

p-p38 = test: Western blot, IL-1β-inducible p-p38 in HMEC-1; assay type: cell-based, human; settings: 1-30 μM
Experimental: (§3) Western blot analysis with extracts of cells treated with IL-13. HMEC-1 (80-90% confluency) were arrested in serum-free MCDB131 medium (Invitrogen, MD) without any growth factor for 48 h. Cells were treated with 30 μM compound in serum-free medium for 4 h, and incubated with 20 ng/ml IL-1β (Sigma, cat. SRE3083) in serum-free medium with the same concentration of compound for up to 4 h, unless otherwise indicated. Total protein was harvested as previously described using RIPA buffer with protease inhibitors. Proteins were resolved on 4-20% (w/v) SDS-polyacrylamide gradient gels and transferred to Immobilon-P PVDF membranes. […] Chemiluminescence was detected using the Western Lightning Chemiluminescence system and ImageQuant™ LAS 4000 biomolecular imager. Band intensity in images generated with the LAS 4000 using the same settings were quantified by NIH ImageJ.

p-SAPK/JNK = test: Western blot, IL-1β-inducible p-SAPK/JNK in HMEC-1; assay type: cell-based, human; settings: 1-30 μM
Experimental: as §3

T2 sequence (Q02750 whole entry): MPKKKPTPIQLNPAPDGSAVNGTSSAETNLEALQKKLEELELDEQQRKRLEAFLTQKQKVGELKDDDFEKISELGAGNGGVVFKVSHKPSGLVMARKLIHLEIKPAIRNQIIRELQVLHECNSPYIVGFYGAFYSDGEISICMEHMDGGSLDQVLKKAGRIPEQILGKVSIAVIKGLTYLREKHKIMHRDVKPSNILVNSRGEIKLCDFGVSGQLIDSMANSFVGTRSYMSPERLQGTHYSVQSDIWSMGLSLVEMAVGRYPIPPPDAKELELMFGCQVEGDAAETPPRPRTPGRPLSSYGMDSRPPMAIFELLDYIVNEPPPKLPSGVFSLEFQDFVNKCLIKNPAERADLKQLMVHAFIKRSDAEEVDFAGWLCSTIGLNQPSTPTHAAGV
T1 sequence (P36507 whole entry): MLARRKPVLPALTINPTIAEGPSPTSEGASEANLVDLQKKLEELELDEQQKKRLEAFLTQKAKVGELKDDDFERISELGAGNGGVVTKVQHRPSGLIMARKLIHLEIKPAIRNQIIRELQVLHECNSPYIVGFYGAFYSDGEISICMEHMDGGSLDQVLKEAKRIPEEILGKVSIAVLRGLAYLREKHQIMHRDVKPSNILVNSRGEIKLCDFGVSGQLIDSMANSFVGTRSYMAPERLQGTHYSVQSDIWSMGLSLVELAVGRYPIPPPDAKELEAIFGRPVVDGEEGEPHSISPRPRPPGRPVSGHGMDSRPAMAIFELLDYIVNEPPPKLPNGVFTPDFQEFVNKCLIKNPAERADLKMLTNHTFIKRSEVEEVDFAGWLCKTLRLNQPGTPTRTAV

SMILES | binding to His-MEK2 (SPR) [3] | binding to His-MEK1 (SPR) [5] | serum-inducible FosB/ΔFosB expression (Western blot) (FosB/ΔFosB) | serum-inducible endothelial proliferation (xCELLigence cell index) (HMEC-1 [1]) | migration of BAEC toward VEGF-A165 (BAEC) | endothelial regrowth after mechanical injury in vitro (HMEC-1 [6]) | also measured
CCN1C(=O)c2cc(NC(=O)COC)ccc2Oc2ccccc21 [BT2-MeOA, N-(10-ethyl-11-oxo-10,11-dihydrodibenzo[b,f][1,4]oxazepin-2-yl)-2-methoxyacetamide] | no appreciable binding | no appreciable binding | – | – | – | – | inhibition of serum-inducible proliferation compared with BT2 (HMEC-1 [1]; 0.4 or 0.8 μM): Neither BT2-MeOA nor any other BT2 analogue had the ability to inhibit; solubility relative to BT2 and analogues [2]: greater solubility than BT2; inhibition of network formation on Matrigel (FIG. 5B) (HMEC-1 [4]; 1 μM): Neither BT2-MeOA nor any other BT2 analogue had the ability to inhibit
CCCN1C(=O)c2cc(NC(=O)OCC)ccc2Oc2ccccc21 [BT2-Pr, ethyl (11-oxo-10-propyl-10,11-dihydrodibenzo[b,f][1,4]oxazepin-2-yl)carbamate] | no appreciable binding | no appreciable binding | – | – | – | – | –
COCCOC(=O)NC(=O)Nc1ccc(C(=NO)c2ccc(Cl)cc2)cc1 [Compound T4] | – | – | inhibited less potently | inhibited serum-inducible proliferation at concentrations in a dose-dependent manner | inhibited migration | blocked this reparative response | endothelial network (tubule) formation on Matrigel (HMEC-1 [4]): inhibited network formation; serum-inducible c-Fos expression (Western blot) (c-Fos): inhibit
COC(=O)Nc1nc2ccc(C(=O)c3ccc(F)cc3)cc2[nH]1 [Compound T6, Flubendazole, reference compound] | – | – | inhibited less potently | inhibited serum-inducible proliferation at concentrations in a dose-dependent manner | inhibited migration | blocked this reparative response | endothelial network (tubule) formation on Matrigel (HMEC-1 [4]): inhibited network formation; serum-inducible c-Fos expression (Western blot) (c-Fos): inhibit
Nc1ccc(C(=O)c2ccc(F)cc2)cc1 [Compound T7, (4-aminophenyl)(4-fluorophenyl)methanone] | – | – | no inhibition | no inhibitory effect | – | no such effect | –
COc1cccc(-c2cc(=O)c3ccccc3o2)c1N [PD98059, reference compound] | bound to both His-MEK1 and His-MEK2 | bound to both His-MEK1 and His-MEK2 | – | – | neither BT3, nor PD98059 (allosteric MEK inhibitor), imatinib (tyrosine kinase inhibitor) or tofacitinib (Janus kinase inhibitor) had an inhibitory effect | – | IL-1β-inducible p-p38 (p-p38): no effect; IL-1β-inducible p-SAPK/JNK (p-SAPK/JNK): no effect
COc1cc(/C=C/C(=O)CC(=O)/C=C/c2ccc(O)c(OC)c2)ccc1O [curcumin, reference compound] | – | – | – | – | – | – | endothelial network formation (HMEC-1 [4]; 1 μM, after 4 h): no inhibition; inhibition at 30 µM (HMEC-1 [4]; Homo sapiens, 30 μM, after 4 h): ~25%; inhibition at 40 µM (HMEC-1 [4]; Homo sapiens, 40 μM, after 4 h): ~50%
Cc1ccc(NC(=O)c2ccc(CN3CCN(C)CC3)cc2)cc1Nc1nccc(-c2cccnc2)n1 [imatinib] | – | – | – | – | neither BT3, nor PD98059 (allosteric MEK inhibitor), imatinib (tyrosine kinase inhibitor) or tofacitinib (Janus kinase inhibitor) had an inhibitory effect | – | –
C[C@@H]1CCN(C(=O)CC#N)C[C@@H]1N(C)c1ncnc2[nH]ccc12 [tofacitinib] | – | – | – | – | neither BT3, nor PD98059 (allosteric MEK inhibitor), imatinib (tyrosine kinase inhibitor) or tofacitinib (Janus kinase inhibitor) had an inhibitory effect | – | –
